The target in experiment [1] is Serine/threonine-protein kinase mTOR (Homo sapiens) (UniProt P42345). In words: Inhibition of mTOR (unknown origin) assessed as ratio of cytoplasmic to nuclear level of eukaryotic initiation factor 4E.
Experiment [2] deals with SW480. In words: Ratio of cisplatin IC50 to compound IC50 for human SW480 cells. Format: functional.
Experiment [3] concerns MCF7. In words: Ratio of cisplatin IC50 to compound IC50 for human MCF7 cells. Format: functional.
Experiment [4] deals with SW480. In words: Cytotoxicity against human SW480 cells after 48 hrs by MTT assay. The conditions noted are these: SW480, 48 h. Format: functional, cell-based. (In general: Formazan colour is commonly taken as a measure of viable cells.)
In experiment [5] the test system is MCF7. The experiment is described as follows: Cytotoxicity against human MCF7 cells after 48 hrs by MTT assay. The conditions noted are these: MCF7, 48 h. Format: functional, cell-based.
A further experiment relates to A549. The experiment is described as follows: Cytotoxicity against human A549 cells after 48 hrs by MTT assay. Format: functional, cell-based. The conditions noted are these: A549, 48 h.
Another experiment concerns HL-60. The experiment is described as follows: Cytotoxicity against human HL60 cells after 48 hrs by MTT assay. Format: functional, cell-based. The conditions noted are these: HL-60, 48 h.
For the next experiment, the system named is SMMC-7721. The experiment is described as follows: Cytotoxicity against human SMMC7721 cells after 48 hrs by MTT assay. Format: functional, cell-based. The conditions noted are these: SMMC-7721, 48 h.

As a reminder, the IC50 is the concentration at which inhibition is half-maximal. A higher IC50 goes with weaker potency in that assay. For `CCc1n(Cc2c(-c3ccccc3)oc3ccccc23)cc[n+]1Cc1ccccc1Br.[Br-]`, in experiment [1], the Ratio turned out to be 1.07. The results for the “Ratio IC50” value in the experiment with SW480 [2] and in the experiment on MCF7 [3] were 40.1 and 40.8, respectively. The IC50 in the experiment on SW480 [4] turned out to be 0.47 µM; in the experiment on MCF7 [5], 0.51 µM; with A549 it was 0.55 µM; with HL-60 it was 0.08 µM; in the experiment with SMMC-7721, 0.52 µM.

`Brc1ccccc1C[n+]1cn(Cc2c(-c3ccccc3)oc3ccccc23)c2ccccc21`: the Ratio in experiment [1] stood at 1.52. Besides, the IC50 in the experiment on SW480 [4] was 5.56 µM; with MCF7 [5], 4.78 µM; in the experiment with A549, 3.34 µM; with HL-60, 0.64 µM; with SMMC-7721, 2.1 µM.

For the origin of these results see ChEMBL document CHEMBL2406955, “Synthesis and cytotoxic activities of novel hybrid 2-phenyl-3-alkylbenzofuran and imidazole/triazole compounds” (Bioorg Med Chem Lett, 2013).
